This is an account of results in ChEMBL document CHEMBL4219060, “Discovery of EBI-1051: A novel and orally efficacious MEK inhibitor with benzofuran scaffold” (Bioorg Med Chem, 2018).

Active and inactive are the calls of the source. The rule behind the calls is not given here.

Data set [1] concerns the target Dual specificity mitogen-activated protein kinase kinase 1 (Homo sapiens, UniProt Q02750).
Description: Inhibition of MEK1 (unknown origin) using Ser/Thr 03 peptide substrate after 4 hrs by fluorescence assay
Data set [2] has as its system COLO 205. Description: Antiproliferative activity against human COLO205 cells harboring BRAF mutant/wild type KRAS/wild type PIK3CA after 72 hrs by CCK8 assay. To be noted: COLO 205, 72 h. (In general: Tetrazolium assays rely on reduction of a dye to a coloured formazan, in cell work by metabolically active cells.)
The test system of data set [3] is A549. The data set can be described thus: Antiproliferative activity against human A549 cells harboring KRAS mutant/wild type BRAF/PIK3CA after 72 hrs by CCK8 assay. The data set is classed as functional, cell-based.
For data set [4], the system named is MDA-MB-231. The data set can be described thus: Antiproliferative activity against human MDA-MB-231 cells harboring KRAS mutant/wild type BRAF/PIK3CA after 72 hrs by CCK8 assay. In kind it is functional, cell-based.
The subject of data set [5] is COLO 205. The data set can be described thus: Antitumor activity against human COLO205 cells xenografted in athymic nude mouse assessed as tumor growth inhibition at 10 mg/kg, po qd for 14 days measured twice per week during compound dosing relative to control. The note with it: COLO 205, po, 336 h, read-out: TGI. For orientation: Xenograft models place foreign cells or tissue in a host animal.

The test system of data set [6] is Mus musculus. The data set can be described thus: Toxicity in athymic nude mouse xenografted with human COLO205 cells assessed as body weight loss at 10 mg/kg, po qd for 14 days measured twice per week during compound dosing. In kind it is organism-based. To be noted: in vivo, 336 h.
Data set [7] can be described thus: Cmax in Sprague-Dawley rat at 10 mg/kg, po via gavage. Details: dose 10 mg/kg, route oral. To be noted: in vivo. In kind it is ADME, organism-based.
Data set [8] is described as follows: AUC (0 to t) in Sprague-Dawley rat at 10 mg/kg, po via gavage. The data set is classed as ADME, organism-based. The note with it: in vivo.
Data set [9] is described as follows: Half life in Sprague-Dawley rat at 10 mg/kg, po via gavage. The data set is classed as ADME, organism-based. The note with it: in vivo.
Data set [10] in a line: Clearance in Sprague-Dawley rat at 2 mg/kg, iv. The data set is classed as ADME, organism-based. The note with it: in vivo.
The nature of data set [11]: Volume of distribution at steady state in Sprague-Dawley rat at 2 mg/kg, iv. The data set is classed as ADME, organism-based. To be noted: in vivo, read-out: Vdss.
Data set [12] can be described thus: Oral bioavailability in Sprague-Dawley rat at 10 mg/kg via gavage. In kind it is ADME, organism-based. The note with it: in vivo.
Data set [13] has as its system Calu-6. Description: Antiproliferative activity against human Calu6 cells harboring KRAS mutant/wild type BRAF/PIK3CA after 72 hrs by CCK8 assay. In kind it is functional, cell-based.
Data set [14] has as its system SW480. The data set can be described thus: Antiproliferative activity against human SW480 cells harboring KRAS mutant/wild type BRAF/PIK3CA after 72 hrs by CCK8 assay. In kind it is functional, cell-based.
In data set [15] the test system is DLD-1. The data set can be described thus: Antiproliferative activity against human DLD1 cells harboring KRAS mutant/wild type BRAF/PIK3CA D549N mutant after 72 hrs by CCK8 assay. In kind it is functional, cell-based.
Data set [16] concerns HT-29. Description: Antiproliferative activity against human HT-29 cells harboring BRAF mutant/PIK3CA mutant/wild type KRAS after 72 hrs by CCK8 assay. In kind it is functional, cell-based.
Data set [17] concerns U-937. Description: Antiproliferative activity against human U937 cells harboring wild type BRAF/KRAS/PIK3CA after 72 hrs by CCK8 assay. The data set is classed as functional, cell-based.
The test system of data set [18] is HeLa. The data set can be described thus: Antiproliferative activity against human HeLa cells harboring wild type BRAF/KRAS/PIK3CA after 72 hrs by CCK8 assay. In kind it is functional, cell-based.
Data set [19] concerns NCI-H1299. Description: Antiproliferative activity against human NCI-H1299 cells harboring wild type BRAF/KRAS/PIK3CA after 72 hrs by CCK8 assay. The data set is classed as functional, cell-based.

Dual specificity mitogen-activated protein kinase kinase 1, sequence (Q02750 whole entry): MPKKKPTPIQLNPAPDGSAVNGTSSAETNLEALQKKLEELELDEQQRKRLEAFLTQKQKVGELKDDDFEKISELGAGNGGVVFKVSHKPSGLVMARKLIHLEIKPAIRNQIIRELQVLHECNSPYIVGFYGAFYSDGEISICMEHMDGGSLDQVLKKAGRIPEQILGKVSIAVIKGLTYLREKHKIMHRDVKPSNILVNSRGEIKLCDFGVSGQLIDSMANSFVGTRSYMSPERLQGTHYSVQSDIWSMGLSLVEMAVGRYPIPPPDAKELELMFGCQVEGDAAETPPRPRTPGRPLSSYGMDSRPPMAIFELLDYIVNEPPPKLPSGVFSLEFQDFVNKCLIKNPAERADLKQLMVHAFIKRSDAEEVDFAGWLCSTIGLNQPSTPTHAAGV

In the case of `O=C(NC[C@H](O)CO)c1cc2c(c(F)c1Nc1ccc(I)cc1F)OCC2`, the half-maximal inhibitory concentration (IC50) (as a rule, the concentration that gives 50% inhibition) in data set [1] was more than 1000 nM.
`Cn1cnc2c(F)c(Nc3ccc(Br)cc3Cl)c(C(=O)NOCCO)cc21` [SELUMETINIB] showed an IC50 in [2] of 59 nM. The outcome in data set [3] and in data set [4] was inactive. Further, the inhibition in vivo at 10 mg/kg in [5] stood at 60%. In addition, in [6], the Activity result was “Non-Toxic”.
`O=C(NOCCO)c1cc2c(cc1Nc1ccc(I)cc1F)OCC2` came in with an IC50 in data set [2] of more than 1000 nM.
The same measure, in the same setting: in the case of `O=C(NOCCO)c1cc2c(c(F)c1Nc1ccc(Br)cc1Cl)OCC2` it was more than 1000 nM; in that of `O=C(NOCCCO)c1cc2ccoc2c(F)c1Nc1ccc(I)cc1F`, 76.5 nM.
`O=C(NOC[C@H](O)CO)c1cc2c(c(F)c1Nc1ccc(I)cc1F)OCC2`: half-maximal inhibition in data set [2] (IC50) was put at 7.2 nM. Moreover, the peak concentration (Cmax) – broadly, the maximum level reached in the sampled fluid or tissue – in data set [7] was 342 ng/mL. Further, the AUC(0-t) (usually the area under the concentration-time curve up to a stated or last time point) in data set [8] was found to be 1470 ng·h/mL. For the same compound, the half-life – broadly, how long it takes for the measured level to halve – in data set [9] is 2 h. In addition, the clearance (commonly the volume of plasma or blood freed of the substance per unit of time) in [10] is 73.6 mL/min/kg. The Vd in data set [11] amounted to 9.4 L/kg. In [12], the bioavailability – broadly, dose-corrected exposure relative to a reference, in per cent – stood at 62%.
In data set [2], `O=C(NOCCO)c1cc2c(c(F)c1Nc1ccc(I)cc1F)OCC2` yielded a concentration for half-maximal inhibition (IC50) of 10 nM.
In [2], `O=C(NOC(CO)CO)c1cc2ccoc2c(F)c1Nc1ccc(I)cc1F` had a 50% inhibitory concentration (IC50) of 4.7 nM. The highest concentration (Cmax) in [7] amounted to 13600 ng/mL. In data set [8], this compound registered an area under the curve AUC(0-t) of 43300 ng·h/mL. Also, the half-life in [9] is 2.5 h. This compound displayed a clearance in data set [10] of 3.4 mL/min/kg. Further, the Vd in data set [11] was found to be 0.8 L/kg. The bioavailability in data set [12] turned out to be 80%. Further, the outcome in data set [3], in data set [4], in data set [13], in data set [14], in [15] and in data set [16] was Active. Moreover, the result in data set [17], in [18] and in data set [19] was inactive. In addition, the inhibition in vivo at 10 mg/kg in [5] turned out to be 78%. Further, the Activity result in data set [6] is “Non-Toxic”.
For the compound `O=C(NC[C@@H](O)CO)c1cc2c(c(F)c1Nc1ccc(I)cc1F)OCC2`, the half-inhibitory concentration (IC50) in [1] was more than 1000 nM.
`CC(C)(CO)ONC(=O)c1cc2ccoc2c(F)c1Nc1ccc(I)cc1F` had an IC50 in [2] of 12 nM.
For the compound `O=C(NOC[C@H](O)CO)c1cc2ccoc2c(F)c1Nc1ccc(I)cc1F`, the IC50 in data set [2] is 2.5 nM. The compound further came in with a Cmax in data set [7] of 695 ng/mL. This compound displayed an AUC(0-t) in data set [8] of 2860 ng·h/mL. In data set [9], this compound had a half-life of 3.4 h.
Take `O=C(NOC[C@@H](O)CO)c1cc2c(c(F)c1Nc1ccc(I)cc1F)OCC2`: in data set [2], 90.1 nM corresponded to half-maximal inhibition (IC50).
In turn, `O=C(NOCCO)c1cc2c(c(Cl)c1Nc1ccc(I)cc1F)OCC2` returned an IC50 in [2] of 38.4 nM.
`O=C(NOCCO)c1cc2ccoc2c(F)c1Nc1ccc(I)cc1F` yielded an IC50 in [2] of 2.9 nM. The compound further returned a Cmax in [7] of 2080 ng/mL. In data set [8], this compound yielded an AUC(0-t) of 8370 ng·h/mL. Further, the half-life in data set [9] was 1.7 h.
Take `O=C(c1cc2c(c(F)c1Nc1ccc(I)cc1F)OCC2)N1C[C@@H](O)CO1`: the IC50 in [2] and in data set [1] was more than 1000 nM in each case.
